Molecular target: T1, AP1G1 (Homo sapiens, UniProt O43747)
T1 construct: endogenous full-length AP1G1 in BEAS-2B cells or lysate; untagged
T1 sequence (O43747 1-822): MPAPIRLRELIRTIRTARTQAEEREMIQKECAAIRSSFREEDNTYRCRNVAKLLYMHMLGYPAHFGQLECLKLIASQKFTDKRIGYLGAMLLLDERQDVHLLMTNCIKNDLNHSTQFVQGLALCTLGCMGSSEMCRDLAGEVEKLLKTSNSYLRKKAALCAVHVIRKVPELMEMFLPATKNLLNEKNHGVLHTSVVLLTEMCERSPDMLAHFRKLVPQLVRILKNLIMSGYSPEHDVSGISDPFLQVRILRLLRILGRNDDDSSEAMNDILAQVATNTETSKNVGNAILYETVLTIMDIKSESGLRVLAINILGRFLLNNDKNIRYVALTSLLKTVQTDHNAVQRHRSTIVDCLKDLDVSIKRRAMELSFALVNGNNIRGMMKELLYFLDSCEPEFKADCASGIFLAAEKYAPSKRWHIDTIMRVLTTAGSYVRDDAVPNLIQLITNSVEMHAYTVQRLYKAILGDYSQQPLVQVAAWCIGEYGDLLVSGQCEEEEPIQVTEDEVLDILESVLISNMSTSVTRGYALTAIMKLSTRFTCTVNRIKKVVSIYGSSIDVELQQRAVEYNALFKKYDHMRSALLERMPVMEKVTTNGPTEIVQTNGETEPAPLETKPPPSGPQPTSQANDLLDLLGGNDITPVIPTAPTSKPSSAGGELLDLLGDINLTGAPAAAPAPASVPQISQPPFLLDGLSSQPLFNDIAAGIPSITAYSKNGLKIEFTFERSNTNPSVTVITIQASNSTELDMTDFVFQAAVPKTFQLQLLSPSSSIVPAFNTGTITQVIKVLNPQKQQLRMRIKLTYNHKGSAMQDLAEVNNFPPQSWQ
Experiment: CETSA-Western blot
Type: cell-based
Conditions: 40-65 ℃; covalent; Cys128; also competes with ITAP in BEAS-2B lysate

`C=C(CC(=O)O)C(=O)O` [itaconate] was tested. Which CETSA-Western blot did it give?
Its CETSA-Western blot is “Itaconate treatment significantly altered the thermal stability of AP1G1”.

Reference: publication PMC12602806, “Itaconate reduces viral endocytosis by targeting Cys128 of the adaptor-related protein complex 1 gamma 1 subunit in the host, providing a novel target for antiviral drug development” (Molecular Biomedicine, 2025)
